Measured values: patent publication EP0434360A1, “New benziodiazepine analogs” (MERCK & CO. INC., priority 1989, dated 1991)
pIC50: −log10 of the molar value. Read-outs that look alike come from different tables or passages of the source.

Experiments:
[1] = molecular target: T1, CCK receptor (brain, cerebral cortex) (Cavia porcellus, UniProt H0VZC5); experiment: CCK Receptor Binding (Brain), inhibition of 125I-CCK-33 binding; set-up: species or system guinea pig; details: for IC50: guinea pig cerebral cortex membranes, 125I-CCK-33, 25°C 2 hours, read-out: IC50(µM) ^125I-CCK Brain
T1 construct: Cerebral cortex was dissected and used as a receptor source; from tissue; host or cells: guinea pig cerebral cortex membrane homogenate
T1 sequence (H0VZC5 1-426): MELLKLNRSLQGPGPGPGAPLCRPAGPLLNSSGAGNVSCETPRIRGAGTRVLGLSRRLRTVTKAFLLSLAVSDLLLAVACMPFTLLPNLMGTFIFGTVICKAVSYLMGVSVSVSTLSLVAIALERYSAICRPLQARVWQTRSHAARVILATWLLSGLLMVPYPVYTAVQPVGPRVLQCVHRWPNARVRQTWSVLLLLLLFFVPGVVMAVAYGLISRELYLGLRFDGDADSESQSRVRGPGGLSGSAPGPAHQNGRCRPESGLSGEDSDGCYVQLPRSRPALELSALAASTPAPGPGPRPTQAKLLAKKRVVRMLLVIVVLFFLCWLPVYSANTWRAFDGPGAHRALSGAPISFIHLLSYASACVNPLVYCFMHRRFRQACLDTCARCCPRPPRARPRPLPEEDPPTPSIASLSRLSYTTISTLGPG
Experimental: 2. CCK Receptor Binding (Brain)
CCK-33 was radiolabeled and the binding was performed according to the description for the pancreas method with modifications according to Saito et al., J. Neurochem. 37: 483-490, 1981.
Male Hartley guinea pigs (300-500 g) were sacrificed by decapitation and the brains were removed and placed in ice-cold 50 mM, Tris HCI plus 7.58 g/l Trizma-7.4 (pH 7.4 at 25°C). Cerebral cortex was dissected and used as a receptor source. Each gram of fresh guinea pig brain tissue was homogenized in 10 ml of Tris/Trizma buffer with a Brinkman polytron PT-10. The homogenates were centrifuged at 42,000 g for 15 minutes. Pellets were resuspended in Tris Buffer, centrifuged as above and resuspended in 200 volumes of binding assay buffer (10 mM N-2-hydroxyethyl-piperazine-N'-2-ethane sulfonic acid (HEPES), 5 mM MgCl2, 0.25 mg/ml bacitracin, 1 mM ethylene glycol-bis-(β-aminoethylether-N,N'-tetraacetic acid) (EGTA), and 0.4% bovine serum albumin (BSA)). […] All assays were run in duplicate or triplicate. The reaction mixtures were incubated at 25°C for 2 hours and centrifuged in a Beckman Microfuge (4 minutes) immediately after adding 1 ml of ice-cold incubation buffer. The supernatant was aspirated and discarded, pellets were counted with a Beckman gamma 5000.

[2] = molecular target: T2, gastrin receptor (gastric glands) (Cavia porcellus, UniProt H0VZC5); experiment: Gastrin Receptor Binding in Guinea Pig Gastric Glands; details: for IC50: guinea pig gastric mucosal glands, 125I-gastrin, 25°C 30 minutes, read-out: IC50(µM) ^125I-Gastrin Gastric Glands
T2 construct: The washed guinea pig gastric glands prepared as above were resuspended in 25 ml of standard buffer; from tissue; host or cells: isolated guinea pig gastric mucosal glands (collagenase-dispersed)
T2 sequence (H0VZC5 1-426): T1 sequence (H0VZC5 1-426)

[3] = molecular target: T3, CCK receptor (pancreas) (Rattus norvegicus, UniProt P30551); experiment: CCK Receptor Binding (Pancreas), inhibition of 125I-CCK-33 binding; details: for IC50: rat pancreas membranes, 125I-CCK-33, 37°C 30 minutes, read-out: IC50(µM) ^125I-CCK Pancreas
T3 construct: The whole pancreas was dissected free of fat tissue and was homogenized; from tissue; host or cells: rat whole pancreas membrane homogenate
T3 sequence (P30551 1-444): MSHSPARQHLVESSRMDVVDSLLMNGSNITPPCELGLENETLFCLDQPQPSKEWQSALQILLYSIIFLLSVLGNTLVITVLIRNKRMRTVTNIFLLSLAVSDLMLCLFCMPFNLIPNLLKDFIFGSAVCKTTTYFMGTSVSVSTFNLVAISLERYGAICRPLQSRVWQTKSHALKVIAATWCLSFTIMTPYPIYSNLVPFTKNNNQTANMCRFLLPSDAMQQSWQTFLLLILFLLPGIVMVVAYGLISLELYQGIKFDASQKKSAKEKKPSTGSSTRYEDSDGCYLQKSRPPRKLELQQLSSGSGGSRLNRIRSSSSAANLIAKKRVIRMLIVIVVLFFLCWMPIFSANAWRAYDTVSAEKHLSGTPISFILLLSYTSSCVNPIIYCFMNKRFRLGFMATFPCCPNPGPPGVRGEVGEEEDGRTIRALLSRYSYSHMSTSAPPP
Experimental: 1. CCK Receptor Binding (Pancreas)
CCK-33 was radiolabeled with ^1251-Bolton Hunter reagent (2000 Cilmmole) as described by Sankara et al. (J. Biol. Chem. 254: 9349-9351, 1979). Receptor binding was performed according to Innis and Snyder (Proc. Natl. Acad. Sci. 77 6917-6921, 1980) with the minor modification of adding the additional protease inhibitors, phenyl-methane sulfonyl fluoride and o-phenanthroline.
Male Sprague-Dawley rats (200-350 g) were sacrificed by decapitation. The whole pancreas was dissected free of fat tissue and was homogenized in 20 volumes of ice-cold 50 mM, Tris HCI (pH 7.7 at 25°C) with a Brink- mann Polytron PT 10. The homogenates were centrifuged at 48,000 g for 10 min. Pellets were resuspended in Tris Buffer, centrifuged as above and resuspended in 200 volumes of binding assay buffer (50 mM Tris HCI, pH 7.7 at 25°C, 5 mM dithiothrietol, 0.1 mM bacitracin, 1.2 mM phenyl-methane sulfonyl fluoride and 0.5 mM o-phenanthroline). […] All assays were run in duplicate or triplicate. The reaction mixtures were incubated at 37°C for30 minutes and centrifuged in a Beckman Microfuge (4 minutes) immediately after adding 1 ml of ice-cold incubation buffer. The supernatant was aspirated and discarded, pellets were counted with a Beckman gamma 5000. For Scatchard analysis (Ann. N.Y. Acad. Sci. 51 : 660, 1949), ^125I-CCK-33 was progressively diluted with increasing concentrations of CCK-33.

Row | SMILES | pIC50 [1] | pIC50 [2] | pIC50 [3] | IC50 [1] [µM] | IC50 [2] [µM] | IC50 [3] [µM]
1 | COc1cccc(NC(=O)NC2N=C(c3ccccc3)c3ccccc3N(CCN(C)C)C2=O)c1 (stereo not shown) [Example 18, N-(2,3-Dihydro-1-(2-dimethylaminoethyl)-2-oxo-5-phenyl-1H-1,4-benzodiazepin-3-yl) -N'-(3-methoxyphenyl)-urea] | 7.62 | 8.00 | 5.59 |  |  | 
2 | CN1C(=O)[C@@H](NC(=O)c2cc3ccccc3n2CCCC(=O)O)N=C(c2ccccc2)c2ccccc21 [Example 7, (S)-4-[-2-(((2,3-Dihydro-1-methyl-2-oxo-5-phenyl-1H-1,4-benzodiazepin-3-yl)amino)carbonyl)-1H-indolyl-1]-bu tanoic acid] |  |  | 10.00 | 0.23 | 0.24 | 
3 | Cc1cccc(NC(=O)N[C@@H]2N=C(c3ccccc3)c3ccccc3N(C)C2=O)c1 [Example 5, (R)-N-(2,3-Dihydro-1-methyl-2-oxo-5-phenyl-1 H-1,4-benzodiazepin-3-yl)-N'-(3-methylphenyl)-urea] | 8.70 | 8.96 |  |  |  | 
4 | CN1C(=O)[C@H](NC(=O)Nc2cccc(C(=O)O)c2)N=C(c2ccccc2)c2ccccc21 [Example 10, (R)-3-((((2,3-Dihydro-l-methyl-2-oxo-5-phenyl-1H-1,4-benzodiazepin-3-yl)amino)carbonyl)amino)benzoic a cid] | 8.41 | 8.05 |  |  |  | 0.049
5 | Cc1cccc(NC(=O)NC2N=C(c3ccccc3)c3ccccc3N(CCO)C2=O)c1 (stereo not shown) [Example 17, N-(2,3-Dihydro-1-(2-hydroxyethyl)-2-oxo-5-phenyl-1 H-1,4-benzodiazepin-3-yl)-N'-(3-methylphenyl)-urea] | 7.92 | 8.42 | 7.16 |  |  | 
6 | CN1C(=O)C(NC(=O)c2cc3cc(OCC(=O)O)ccc3[nH]2)N=C(c2ccccc2)c2ccccc21 (stereo not shown) [Example 16, 1,3-Dihydro-3-(5-carboxymethyloxyindole-2-carbonylamino)-1-methyl-5-phenyl-2H-1,4-benzodiazepin 2-one] |  |  | 7.64 | 0.16 |  | 
7 | CN1C(=O)C(NC(=O)Nc2cc3c(cn2)[nH]c2ccccc23)N=C(c2ccccc2)c2ccccc21 (racemic) [Example 13, (RS)-N-(2,3-Dihydro-1-methyl-2-oxo-5-phenyl-1H-1,4-benzodiazepin-3-yl)-N'-9H-pyrido(3,4-b)indol-3-yl-urea] | 7.15 |  | 7.85 |  | 6.4 | 
8 | CN1C(=O)C(NC(=O)Nc2cccc(C(=O)O)c2)N=C(c2ccccc2)c2ccccc21 (racemic) [Example 9, (RS)-3-((((2,3-Dihydro-1-methyl-2-oxo-5-phenyl-1 H-1,4-benzodiazepin-3-yl)amino)carbonyl)amino)benzoic acid] | 8.41 | 8.05 | 7.31 |  |  | 
9 | O=C(NC1N=C(c2ccccc2)c2ccccc2N(CCO)C1=O)c1cc2ccccc2[nH]1 (racemic) [Example 12, (RS)-N-(2,3-Dihydro-1-(2-hydroxyethyl)-2-oxo-5-phenyl-1 H-1,4-benzodiazepin-3-yl)-1 H-indole-2-carboxamide] |  |  | 8.62 | 0.16 | 0.24 | 
10 | CN1C(=O)C(NC(=O)Nc2ccc(N)nc2)N=C(c2ccccc2)c2ccccc21 (racemic) [Example 14, (RS)-N-(6-Amino-3-pyridyl)-N'-(2,3-dihydro-l-methyl-2-oxo-5-phenyl-1H-1,4-benzodiazepin-3-yl)-urea] | 7.96 | 6.40 |  |  |  | 2.7
11 | CCOC(=O)c1cccc(NC(=O)N[C@@H]2N=C(c3ccccc3)c3ccccc3N(C)C2=O)c1 [Example 19, (R)-3-((((2,3-Dihydro-1-methyl-2-oxo-5-phenyl-1H-1,4-benzodiazepin-3-yl)amino)carbonyl)amino)benzoic acid ethyl ester] |  |  | 7.70 | 0.026 | 0.018 | 
12 | CN1C(=O)[C@@H](NC(=O)c2cc3ccccc3n2CC(=O)O)N=C(c2ccccc2)c2ccccc21 [Example 6, 3(S)-3-(2-(N-carboxymethylindole)carbonylamino)-1,3-dihydro-1-methyl-5-phenyl-2H-1,4-benzodiazepin-2-one] |  |  | 9.89 | 0.129 | 0.07 | 
